Measurements: patent US20070082880A1 (priority 2005, published 2007)
pIC50: −log10 of the molar value.

Biological target: T1, human PKCθ full length enzyme (Homo sapiens, UniProt Q04759)
T1 construct: human PKCθ full length enzyme (Panvera Catalog No. P2996); purchased Panvera P2996
Test: PKCθ IMAP Assay
Assay type: biochemical
Conditions: average value when one or more samples were tested; ATP 6 uM, PKCθ 1 nM
How it was run: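 IMAP fluorescence polarization after 20 min with binding beads measured phosphorylation of 100 nM 5FAM-peptide. Reactions held 1 nM full-length human PKCθ, 6 uM ATP, 5% DMSO and DTT-containing buffer, 25 min at room temperature. Compounds tested as 2:1 serial dilutions; controls lacked ATP or enzyme.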

T1 sequence (Q04759 whole entry): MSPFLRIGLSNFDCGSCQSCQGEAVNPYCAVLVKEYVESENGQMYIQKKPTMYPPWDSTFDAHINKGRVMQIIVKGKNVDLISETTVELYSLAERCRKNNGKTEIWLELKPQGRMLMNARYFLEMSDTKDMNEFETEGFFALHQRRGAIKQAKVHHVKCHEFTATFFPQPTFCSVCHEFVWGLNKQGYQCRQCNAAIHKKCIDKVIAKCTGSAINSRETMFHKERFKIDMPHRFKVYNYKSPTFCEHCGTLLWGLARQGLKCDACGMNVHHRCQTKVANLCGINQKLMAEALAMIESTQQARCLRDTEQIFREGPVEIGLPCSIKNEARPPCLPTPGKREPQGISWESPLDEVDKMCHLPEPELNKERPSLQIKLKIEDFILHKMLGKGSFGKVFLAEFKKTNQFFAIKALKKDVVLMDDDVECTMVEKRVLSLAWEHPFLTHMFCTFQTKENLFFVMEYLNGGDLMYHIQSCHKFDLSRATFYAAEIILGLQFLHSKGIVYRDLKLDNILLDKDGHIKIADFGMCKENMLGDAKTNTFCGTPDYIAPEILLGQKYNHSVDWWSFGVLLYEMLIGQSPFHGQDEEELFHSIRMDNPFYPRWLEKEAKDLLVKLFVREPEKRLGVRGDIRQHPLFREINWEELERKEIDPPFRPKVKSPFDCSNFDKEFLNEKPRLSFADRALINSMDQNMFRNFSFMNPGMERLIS

pIC50 | Structure (SMILES)
6.74 | Cc1c(Nc2c(C#N)cnc3sc(-c4ccccc4NS(C)(=O)=O)cc23)ccc2[nH]ccc12 [Compound 371, N-(2-{5-cyano-4-[(4-methyl-1H-indol-5-yl)amino]thieno[2,3-b]pyridin-2-yl}phenyl)methanesulfonamide]
7.24 | Cc1c(Nc2c(C#N)cnc3sc(-c4cc5ccccc5s4)cc23)ccc2[nH]ccc12 [Compound 373, 2-(1-benzothien-2-yl)-4-[(4-methyl-1H-indol-5-yl)amino]thieno[2,3-b]pyridine-5-carbonitrile]
6.85 | Cc1c(Nc2c(C#N)cnc3sc(-c4cc5cc(C=O)ccc5s4)cc23)ccc2[nH]ccc12 [Compound 374, 2-(5-formyl-1-benzothien-2-yl)-4-[(4-methyl-1H-indol-5-yl)amino]thieno[2,3-b]pyridine-5-carbonitrile]
7.39 | Cc1c(Nc2c(C#N)cnc3sc(-c4cccc(S(C)(=O)=O)c4)cc23)ccc2[nH]ccc12 [Compound 375, 4-[(4-methyl-1H-indol-5-yl)amino]-2-[3-(methylsulfonyl)phenyl]thieno[2,3-b]pyridine-5-carbonitrile]
7.59 | Cc1c(Nc2c(C#N)cnc3sc(-c4ccc(S(C)(=O)=O)cc4)cc23)ccc2[nH]ccc12 [Compound 376, 4-[(4-methyl-1H-indol-5-yl)amino]-2-[4-(methylsulfonyl)phenyl]thieno[2,3-b]pyridine-5-carbonitrile]
6.85 | Cc1c(Nc2c(C#N)cnc3sc(-c4cccc(Br)c4)cc23)ccc2[nH]ccc12 [Compound 377, 2-(3-bromophenyl)-4-[(4-methyl-1H-indol-5-yl)amino]thieno[2,3-b]pyridine-5-carbonitrile]
7.01 | Cc1cc(C=O)cc(-c2cc3c(Nc4ccc5[nH]ccc5c4C)c(C#N)cnc3s2)c1 [Compound 378, 2-(3-formyl-5-methylphenyl)-4-[(4-methyl-1H-indol-5-yl)amino]thieno[2,3-b]pyridine-5-carbonitrile]
6.77 | CCCOc1c(C=O)cc(C)cc1-c1cc2c(Nc3ccc4[nH]ccc4c3C)c(C#N)cnc2s1 [Compound 379, 2-(3-formyl-5-methyl-2-propoxyphenyl)-4-[(4-methyl-1H-indol-5-yl)amino]thieno[2,3-b]pyridine-5-carbonitrile]
7.80 | Cc1c(Nc2c(C#N)cnc3sc(-c4cnc5ccccc5c4)cc23)ccc2[nH]ccc12 [Compound 380, 4-[(4-methyl-1H-indol-5-yl)amino]-2-quinolin-3-ylthieno[2,3-b]pyridine-5-carbonitrile]
8.70 | Cc1c(Nc2c(C#N)cnc3sc(-c4cncc(C=O)c4)cc23)ccc2[nH]ccc12 [Compound 387, 2-(5-formylpyridin-3-yl)-4-[(4-methyl-1H-indol-5-yl)amino]thieno[2,3-b]pyridin-5-carbonitrile]
6.93 | Cc1c(Nc2c(C#N)cnc3sc(-c4ccccc4F)cc23)ccc2[nH]ccc12 [Compound 388, 2-(2-fluorophenyl)-4-[(4-methyl-1H-indol-5-yl)amino]thieno[2,3-b]pyridine-5-carbonitrile]
7.74 | Cc1c(Nc2c(C#N)cnc3sc(-c4cc(C=O)ccc4F)cc23)ccc2[nH]ccc12 [Compound 389, 2-(2-fluoro-5-formylphenyl)-4-[(4-methyl-1H-indol-5-yl)amino]thieno[2,3-b]pyridine-5-carbonitrile]
7.07 | Cc1c(Nc2c(C#N)cnc3sc(-c4ccc(N(C)C)nc4)cc23)ccc2[nH]ccc12 [Compound 391, 2-[6-(dimethylamino)pyridin-3-yl]-4-[(4-methyl-1H-indol-5-yl)amino]thieno[2,3-b]pyridine-5-carbonitrile]
6.75 | COCc1ccccc1-c1cc2c(Nc3ccc4[nH]ccc4c3C)c(C#N)cnc2s1 [Compound 392, 2-[2-(methoxymethyl)phenyl]-4-[(4-methyl-1H-indol-5-yl)amino]thieno[2,3-b]pyridine-5-carbonitrile]
8.00 | Cc1c(Nc2c(C#N)cnc3sc(-c4cccc(NCCN(C)C)c4)cc23)ccc2[nH]ccc12 [Compound 394, 2-(3-{[2-(dimethylamino)ethyl]amino}phenyl)-4-[(4-methyl-1H-indol-5-yl)amino]thieno[2,3-b]pyridine-5-carbonitrile]
6.55 | Cc1c(Nc2c(C#N)cnc3sc(-c4cnc(N5CCCCC5)nc4)cc23)ccc2[nH]ccc12 [Compound 395, 4-[(4-methyl-1H-indol-5-yl)amino]-2-(2-piperidin-1-ylpyrimidin-5-yl)thieno[2,3-b]pyridine-5-carbonitrile]
6.81 | Cc1c(Nc2c(C#N)cnc3sc(-c4cnc(N5CCCC5)nc4)cc23)ccc2[nH]ccc12 [Compound 396, 4-[(4-methyl-1H-indol-5-yl)amino]-2-(2-pyrrolidin-1-ylpyrimidin-5-yl)thieno[2,3-b]pyridine-5-carbonitrile]
6.53 | Cc1c(Nc2c(C#N)cnc3sc(-c4ccc(N5CCCCC5)nc4)cc23)ccc2[nH]ccc12 [Compound 397, 4-[(4-methyl-1H-indol-5-yl)amino]-2-(6-piperidin-1-ylpyridin-3-yl)thieno[2,3-b]pyridine-5-carbonitrile]
7.12 | Cc1c(Nc2c(C#N)cnc3sc(-c4ccccc4CO)cc23)ccc2[nH]ccc12 [Compound 398, 2-[2-(hydroxymethyl)phenyl]-4-[(4-methyl-1H-indol-5-yl)amino]thieno[2,3-b]pyridine-5-carbonitrile]

More lines, now with the values behind:

Structure (SMILES) | pIC50
CS(=O)(=O)Nc1ccccc1-c1cc2c(Nc3ccc4[nH]ccc4c3)c(C#N)cnc2s1 [Compound 370, N-{2-[5-cyano-4-(1H-indol-5-ylamino)thieno[2,3-b]pyridin-2-yl]phenyl}methanesulfonamide] | 5.99
Cc1c(Nc2c(C#N)cnc3sc(-c4ccc(NS(C)(=O)=O)cc4)c(C)c23)ccc2[nH]ccc12 [Compound 372, N-(4-{5-cyano-3-methyl-4-[(4-methyl-1H-indol-5-yl)amino]thieno[2,3-b]pyridin-2-yl}phenyl)methanesulfonamide] | 6.20
CCCCOc1ccccc1-c1cc2c(Nc3ccc4[nH]ccc4c3C)c(C#N)cnc2s1 [Compound 381, 2-(2-butoxyphenyl)-4-[(4-methyl-1H-indol-5-yl)amino]thieno[2,3-b]pyridine-5-carbonitrile] | 5.70
CCCOc1ccccc1-c1cc2c(Nc3ccc4[nH]ccc4c3C)c(C#N)cnc2s1 [Compound 382, 4-[(4-methyl-1H-indol-5-yl)amino]-2-(2-propoxyphenyl)thieno[2,3-b]pyridine-5-carbonitrile] | 6.24
Cc1c(Nc2c(C#N)cnc3sc(-c4ccccc4OCCCN(C)C)cc23)ccc2[nH]ccc12 [Compound 383, 2-{2-[3-(dimethylamino)propoxy]phenyl}-4-[(4-methyl-1H-indol-5-yl)amino]thieno[2,3-b]pyridine-5-carbonitrile] | 7.19
CCCOc1ccc(CN(C)C)cc1-c1cc2c(Nc3ccc4[nH]ccc4c3C)c(C#N)cnc2s1 [Compound 384, 2-{5-[(dimethylamino)methyl]-2-propoxyphenyl}-4-[(4-methyl-1H-indol-5-yl)amino]thieno[2,3-b]pyridine-5-carbonitrile] | 7.03
CCOc1ccc2cc(-c3cc4c(Nc5ccc6[nH]ccc6c5C)c(C#N)cnc4s3)ccc2c1 [Compound 385, 2-(6-ethoxy-2-naphthyl)-4-[(4-methyl-1H-indol-5-yl)amino]thieno[2,3-b]pyridine-5-carbonitrile] | < 4.52
Cc1c(Nc2c(C#N)cnc3sc(-c4cccc(N(C)CCN(C)C)c4)cc23)ccc2[nH]ccc12 [Compound 390, 2-(3-{[2-(dimethylamino)ethyl](methyl)amino}phenyl)-4-[(4-methyl-1H-indol-5-yl)amino]thieno[2,3-b]pyridine-5-carbonitrile] | 7.37
Cc1c(Nc2c(C#N)cnc3sc(-c4ccccc4OCCN(C)C)cc23)ccc2[nH]ccc12 [Compound 399, 2-{2-[2-(dimethylamino)ethoxy]phenyl}-4-[(4-methyl-1H-indol-5-yl)amino]thieno[2,3-b]pyridine-5-carbonitrile] | 9.00
N#Cc1cnc2sc(/C=C/c3ccccc3)cc2c1Nc1ccc2[nH]ccc2c1 [Compound 400, 4-(1H-indol-5-ylamino)-2-[(E)-2-phenylvinyl]thieno[2,3-b]pyridine-5-carbonitrile] | 6.36
N#Cc1cnc2sc(/C=C/c3ccc(F)cc3)cc2c1Nc1ccc2[nH]ccc2c1 [Compound 401, 2-[(E)-2-(4-fluorophenyl)vinyl]-4-(1H-indol-5-ylamino)thieno[2,3-b]pyridine-5-carbonitrile] | 5.61
N#Cc1cnc2sc(/C=C/c3cccc(F)c3)cc2c1Nc1ccc2[nH]ccc2c1 [Compound 402, 2-[(E)-2-(3-fluorophenyl)vinyl]-4-(1H-indol-5-ylamino)thieno[2,3-b]pyridine-5-carbonitrile] | 6.33
N#Cc1cnc2sc(/C=C/CCO)cc2c1Nc1ccc2[nH]ccc2c1 [Compound 403, 2-[(1E)-4-hydroxybut-1-en-1-yl]-4-(1H-indol-5-ylamino)thieno[2,3-b]pyridine-5-carbonitrile] | 6.40
COc1cccc(/C=C/c2cc3c(Nc4ccc5[nH]ccc5c4)c(C#N)cnc3s2)c1 [Compound 404, 4-(1H-indol-5-ylamino)-2-[(E)-2-(3-methoxyphenyl)vinyl]thieno[2,3-b]pyridine-5-carbonitrile] | 5.94
COc1ccc(/C=C/c2cc3c(Nc4ccc5[nH]ccc5c4)c(C#N)cnc3s2)cc1 [Compound 405, 4-(1H-indol-5-ylamino)-2-[(E)-2-(4-methoxyphenyl)vinyl]thieno[2,3-b]pyridine-5-carbonitrile] | 6.32
Cc1ccc(/C=C/c2cc3c(Nc4ccc5[nH]ccc5c4)c(C#N)cnc3s2)cc1 [Compound 406, 4-(1H-indol-5-ylamino)-2-[(E)-2-(4-methylphenyl)vinyl]thieno[2,3-b]pyridine-5-carbonitrile] | 4.92
